Earlier results as cited in patent US6531115B1, “Analgesic and refreshing herbal composition and a process for preparing the same” (Council of Scientific & Industrial Research, priority 2001, dated 2003).

test system: toothache; settings: in vivo

Compound | pain-relieving activity
Cc1ccc(C(C)C)c(O)c1 [Thymol] | very weak
CCO [alcohol] | almost no effect

test system: artificial toothache; settings: rabbits having artificial toothache

Compound | sedative effect on toothache
Oc1ccccc1 [Phenol] | strongest action
CC12CCC(CC1=O)C2(C)C (stereo not drawn) [camphor] | no sedative effect
CC12CCC(CC1)C(C)(C)O2 [eucalyptol] | weak
CC1CCC(C(C)C)C(O)C1 (stereo not drawn) [menthol] | weak
